Measurements reported in patent US20260028365A1 (BIOGEN MA INC., priority 2022, published 2026).

Key:
[1] = molecular target: Tyk2 (Homo sapiens (Human), UniProt P29597); assay: pSTAT4 Cell Assay (MSD, NK92 cells); assay type: cell-based
[2] = molecular target: JH2 domain of human Tyk2 (Homo sapiens (Human), UniProt P29597); assay: JH2 Biochemical Assay (TR-FRET probe displacement); assay type: binding; settings: TR-FRET probe displacement, JH2 domain
JH2 domain of human Tyk2, sequence (P29597 575-876): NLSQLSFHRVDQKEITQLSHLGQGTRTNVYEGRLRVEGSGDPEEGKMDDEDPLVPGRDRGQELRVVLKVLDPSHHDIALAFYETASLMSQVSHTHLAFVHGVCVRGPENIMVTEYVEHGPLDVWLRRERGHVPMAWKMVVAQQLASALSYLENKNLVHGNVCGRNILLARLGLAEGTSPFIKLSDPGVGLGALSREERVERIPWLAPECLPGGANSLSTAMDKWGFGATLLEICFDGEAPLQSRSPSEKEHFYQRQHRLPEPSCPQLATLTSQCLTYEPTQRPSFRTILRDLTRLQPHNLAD

Tyk2, sequence (P29597 whole entry, the tested form may be a part): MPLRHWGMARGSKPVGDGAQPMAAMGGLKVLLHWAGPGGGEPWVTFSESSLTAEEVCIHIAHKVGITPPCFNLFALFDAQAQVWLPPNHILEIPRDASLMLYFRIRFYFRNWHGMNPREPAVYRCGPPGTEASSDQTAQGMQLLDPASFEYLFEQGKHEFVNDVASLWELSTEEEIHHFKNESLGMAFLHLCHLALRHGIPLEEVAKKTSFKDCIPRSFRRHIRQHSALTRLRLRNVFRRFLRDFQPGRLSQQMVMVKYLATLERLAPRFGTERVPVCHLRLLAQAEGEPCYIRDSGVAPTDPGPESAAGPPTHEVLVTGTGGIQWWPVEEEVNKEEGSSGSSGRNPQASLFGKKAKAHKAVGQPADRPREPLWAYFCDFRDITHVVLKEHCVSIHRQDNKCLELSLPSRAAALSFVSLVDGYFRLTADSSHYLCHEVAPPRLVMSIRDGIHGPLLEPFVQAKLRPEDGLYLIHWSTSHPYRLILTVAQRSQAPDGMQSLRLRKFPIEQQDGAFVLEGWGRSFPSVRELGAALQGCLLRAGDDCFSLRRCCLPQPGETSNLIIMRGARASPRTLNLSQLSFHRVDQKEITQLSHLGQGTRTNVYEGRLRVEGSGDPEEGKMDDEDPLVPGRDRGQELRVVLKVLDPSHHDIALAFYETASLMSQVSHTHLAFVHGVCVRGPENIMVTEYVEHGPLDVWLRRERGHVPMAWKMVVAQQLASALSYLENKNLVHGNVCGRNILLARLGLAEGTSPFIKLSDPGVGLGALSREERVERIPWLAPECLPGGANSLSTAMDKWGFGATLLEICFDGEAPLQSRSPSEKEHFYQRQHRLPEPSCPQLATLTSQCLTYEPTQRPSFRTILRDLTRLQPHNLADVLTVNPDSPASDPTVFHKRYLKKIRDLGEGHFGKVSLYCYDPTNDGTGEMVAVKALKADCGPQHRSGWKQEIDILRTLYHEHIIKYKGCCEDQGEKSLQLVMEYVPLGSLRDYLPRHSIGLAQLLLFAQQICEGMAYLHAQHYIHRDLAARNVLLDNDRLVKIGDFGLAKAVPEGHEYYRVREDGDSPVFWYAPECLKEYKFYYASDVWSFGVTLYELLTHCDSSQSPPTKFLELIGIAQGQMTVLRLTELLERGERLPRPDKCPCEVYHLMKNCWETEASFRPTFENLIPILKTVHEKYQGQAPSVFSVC

Compound `CC(=O)Nc1cc(Nc2cc(C)nc(C(C)(F)F)n2)c(-c2cc(C(C)(C)N(C)C)n(C)n2)cn1` [Example 802, N-(4-((2-(1,1-difluoroethyl)-6-methylpyrimidin-4-yl)amino)-5-(5-(2-(dimethylamino)propan-2-yl)-1-methyl-1H-pyrazol-3-yl)pyridin-2-yl)acetamide] has an IC50 [1] of at most 10 nM and an IC50 [2] of at most 10 nM.
`CC(=O)Nc1cc(Nc2cc(C)nc(C(C)(F)F)n2)c(-c2cc(CN3CCCC3)n(C)n2)cn1` [Example 803, N-(4-((2-(1,1-difluoroethyl)-6-methylpyrimidin-4-yl)amino)-5-(1-methyl-5-(pyrrolidin-1-ylmethyl)-1H-pyrazol-3-yl)pyridin-2-yl)acetamide] gave an IC50 [1] of at most 10 nM and an IC50 [2] of at most 10 nM.
In the case of `CC(=O)Nc1cc(Nc2cc(C)nc(C(C)(F)F)n2)c(-c2cc(CN3CCN(C)CC3)n(C)n2)cn1` [Example 804, N-(4-((2-(1,1-difluoroethyl)-6-methylpyrimidin-4-yl)amino)-5-(1-methyl-5-((4-methylpiperazin-1-yl)methyl)-1H-pyrazol-3-yl)pyridin-2-yl)acetamide], the IC50 [1] is reported as at most 10 nM and the IC50 [2] is reported as at most 10 nM.
`CC(=O)Nc1cc(Nc2cc(C)nc(C(C)(F)F)n2)c(-c2cc(CN3CCCC3)ccn2)cn1` [Example 805, N-(4′-((2-(1,1-difluoroethyl)-6-methylpyrimidin-4-yl)amino)-4-(pyrrolidin-1-ylmethyl)-[2,3′-bipyridin]-6′-yl)acetamide] showed an IC50 [1] of 10 to 100 nM and an IC50 [2] of at most 10 nM.
`CC(=O)Nc1cc(Nc2cc(C)nc(C(C)(F)F)n2)c(-c2cnc(CN(C)C)cn2)cn1` [Example 807, N-(4-((2-(1,1-difluoroethyl)-6-methylpyrimidin-4-yl)amino)-5-(5-((dimethylamino)methyl)pyrazin-2-yl)pyridin-2-yl)acetamide] showed an IC50 [1] of at most 10 nM and an IC50 [2] of at most 10 nM.
With `COc1cc(Nc2ccnc(NC(C)=O)c2)nc(C(C)(F)F)n1` [Example 808, N-(4-((2-(1,1-difluoroethyl)-6-methoxypyrimidin-4-yl)amino)pyridin-2-yl)acetamide] the IC50 [1] was at least 1000 nM and the IC50 [2] was 10 to 100 nM.
`CC(=O)Nc1cc(Nc2cc(C)nc(C(C)(F)F)n2)c(-c2cnn(C)c2)cn1` [Example 812, N-(4-((2-(1,1-difluoroethyl)-6-methylpyrimidin-4-yl)amino)-5-(1-methyl-1H-pyrazol-4-yl)pyridin-2-yl)acetamide] was tested, and the IC50 [1] was at least 1000 nM and the IC50 [2] was 10 to 100 nM.
Compound `CC(=O)Nc1cc(Nc2cc(C)nc(C(C)(F)F)n2)c(-c2ccc3c(n2)OCC(C)(C)O3)cn1` [Example 813, N-(4-((2-(1,1-difluoroethyl)-6-methylpyrimidin-4-yl)amino)-5-(2,2-dimethyl-2,3-dihydro-[1,4]dioxino[2,3-b]pyridin-6-yl)pyridin-2-yl)acetamide] has an IC50 [1] of at most 10 nM and an IC50 [2] of at most 10 nM.
Work on `CC(=O)Nc1cc(Nc2cc(C)nc(C(C)(F)F)n2)c(-c2cc(F)n(C)n2)cn1` [Example 814, N-(4-((2-(1,1-difluoroethyl)-6-methylpyrimidin-4-yl)amino)-5-(5-fluoro-1-methyl-1H-pyrazol-3-yl)pyridin-2-yl)acetamide] yielded an IC50 [1] of at most 10 nM and an IC50 [2] of at most 10 nM.
Compound `COc1cnc(-c2cnc(NC(C)=O)cc2Nc2cc(C)nc(C(C)(F)F)n2)cn1` [Example 815, N-(4-((2-(1,1-difluoroethyl)-6-methylpyrimidin-4-yl)amino)-5-(5-methoxypyrazin-2-yl)pyridin-2-yl)acetamide] has an IC50 [1] of at least 1000 nM and an IC50 [2] of at most 10 nM.
In the case of `CCc1cc(Nc2cc(NC(C)=O)ncc2F)nc(C(C)(F)F)n1` [Example 816, N-(4-((2-(1,1-difluoroethyl)-6-ethylpyrimidin-4-yl)amino)-5-fluoropyridin-2-yl)acetamide], the IC50 [1] is reported as 100 to 1000 nM and the IC50 [2] is reported as at most 10 nM.
`CC(=O)Nc1cc(Nc2cc(C(C)C)nc(C(C)(F)F)n2)c(F)cn1` [Example 817, N-(4-((2-(1,1-difluoroethyl)-6-isopropylpyrimidin-4-yl)amino)-5-fluoropyridin-2-yl)acetamide] was tested, and the IC50 [1] was at least 1000 nM and the IC50 [2] was 10 to 100 nM.
`CC(=O)Nc1cc(Nc2cc(OC3CC3)nc(C(C)(F)F)n2)c(F)cn1` [Example 818, N-(4-((6-cyclopropoxy-2-(1,1-difluoroethyl)pyrimidin-4-yl)amino)-5-fluoropyridin-2-yl)acetamide] showed an IC50 [1] of 100 to 1000 nM and an IC50 [2] of at most 10 nM.
In the case of `CC(=O)Nc1cc(Nc2cc(-c3cnn(C(C)C)c3)nc(C(C)(F)F)n2)c(F)cn1` [Example 819, N-(4-((2-(1,1-difluoroethyl)-6-(1-isopropyl-1H-pyrazol-4-yl)pyrimidin-4-yl)amino)-5-fluoropyridin-2-yl)acetamide], the IC50 [1] is reported as at least 1000 nM and the IC50 [2] is reported as 10 to 100 nM.
`CCc1cc(Nc2cc(NC(C)=O)ncc2-c2ccc3c(n2)OCC(C)(C)O3)nc(C(C)(F)F)n1` [Example 821, N-(4-((2-(1,1-difluoroethyl)-6-ethylpyrimidin-4-yl)amino)-5-(2,2-dimethyl-2,3-dihydro-[1,4]dioxino[2,3-b]pyridin-6-yl)pyridin-2-yl)acetamide] showed an IC50 [1] of at most 10 nM and an IC50 [2] of at most 10 nM.
`CC(=O)Nc1cc(Nc2cc(C(C)C)nc(C(C)(F)F)n2)c(-c2ccc3c(n2)OCC(C)(C)O3)cn1` [Example 822, N-(4-((2-(1,1-difluoroethyl)-6-isopropylpyrimidin-4-yl)amino)-5-(2,2-dimethyl-2,3-dihydro-[1,4]dioxino[2,3-b]pyridin-6-yl)pyridin-2-yl)acetamide] gave an IC50 [1] of at most 10 nM and an IC50 [2] of at most 10 nM.
`CCc1cc(Nc2cc(NC(C)=O)ncc2-c2cnccn2)nc(C(C)(F)F)n1` [Example 823, N-(4-((2-(1,1-difluoroethyl)-6-ethylpyrimidin-4-yl)amino)-5-(pyrazin-2-yl)pyridin-2-yl)acetamide] gave an IC50 [1] of 10 to 100 nM and an IC50 [2] of at most 10 nM.
In the case of `CC(=O)Nc1cc(Nc2cc(OC3CC3)nc(C(C)(F)F)n2)c(-c2cnccn2)cn1` [Example 824, N-(4-((6-cyclopropoxy-2-(1,1-difluoroethyl)pyrimidin-4-yl)amino)-5-(pyrazin-2-yl)pyridin-2-yl)acetamide], the IC50 [1] is reported as 10 to 100 nM and the IC50 [2] is reported as at most 10 nM.
For `CC(=O)Nc1cc(Nc2cc(C)nc(C(C)(F)F)n2)c(-c2ccc(C(F)F)cn2)cn1` [Example 827, N-(4′-((2-(1,1-difluoroethyl)-6-methylpyrimidin-4-yl)amino)-5-(difluoromethyl)-[2,3′-bipyridin]-6′-yl)acetamide], the IC50 [1] was at most 10 nM and the IC50 [2] was at most 10 nM.
`COc1cnc(-c2cnc(NC(C)=O)cc2Nc2ccnc(C(C)(F)F)n2)cn1` [Example 828, N-(4-((2-(1,1-difluoroethyl)pyrimidin-4-yl)amino)-5-(5-methoxypyrazin-2-yl)pyridin-2-yl)acetamide] was tested, and the IC50 [1] was 10 to 100 nM and the IC50 [2] was at most 10 nM.
Work on `CCc1cc(Nc2cc(NC(C)=O)ncc2-c2cnc(OC)cn2)nc(C(C)(F)F)n1` [Example 829, N-(4-((2-(1,1-difluoroethyl)-6-ethylpyrimidin-4-yl)amino)-5-(5-methoxypyrazin-2-yl)pyridin-2-yl)acetamide] yielded an IC50 [1] of 10 to 100 nM and an IC50 [2] of at most 10 nM.
`COc1cnc(-c2cnc(NC(C)=O)cc2Nc2cc(OC3CC3)nc(C(C)(F)F)n2)cn1` [Example 830, N-(4-((6-cyclopropoxy-2-(1,1-difluoroethyl)pyrimidin-4-yl)amino)-5-(5-methoxypyrazin-2-yl)pyridin-2-yl)acetamide] was tested, and the IC50 [1] was 10 to 100 nM and the IC50 [2] was at most 10 nM.
With `CCc1cc(Nc2cc(NC(C)=O)ncc2-c2ccc(=O)n(C)n2)nc(C(C)(F)F)n1` [Example 831, N-(4-((2-(1,1-difluoroethyl)-6-ethylpyrimidin-4-yl)amino)-5-(1-methyl-6-oxo-1,6-dihydropyridazin-3-yl)pyridin-2-yl)acetamide] the IC50 [1] was at most 10 nM and the IC50 [2] was at most 10 nM.
`COc1ccc(-c2cnc(NC(C)=O)cc2Nc2cc(C(C)C)nc(C(C)(F)F)n2)nn1` [Example 832, N-(4-((2-(1,1-difluoroethyl)-6-isopropylpyrimidin-4-yl)amino)-5-(6-methoxypyridazin-3-yl)pyridin-2-yl)acetamide] showed an IC50 [1] of at most 10 nM and an IC50 [2] of at most 10 nM.
`COc1ccc(-c2cnc(NC(C)=O)cc2Nc2cc(OC3CC3)nc(C(C)(F)F)n2)nn1` [Example 833, N-(4-((6-cyclopropoxy-2-(1,1-difluoroethyl)pyrimidin-4-yl)amino)-5-(6-methoxypyridazin-3-yl)pyridin-2-yl)acetamide] gave an IC50 [1] of at most 10 nM and an IC50 [2] of at most 10 nM.
Work on `CC(=O)Nc1cc(Nc2cc(C)nc(C(C)(F)F)n2)c(-c2ccnc(C(C)(F)F)n2)cn1` [Example 837, N-(4-((2-(1,1-difluoroethyl)-6-methylpyrimidin-4-yl)amino)-5-(2-(1,1-difluoroethyl)pyrimidin-4-yl)pyridin-2-yl)acetamide] yielded an IC50 [1] of at most 10 nM and an IC50 [2] of at most 10 nM.
With `CC(=O)Nc1cc(Nc2cc(C)nc(C(C)(F)F)n2)c(-c2cnc(C#N)cn2)cn1` [Example 838, N-(5-(5-cyanopyrazin-2-yl)-4-((2-(1,1-difluoroethyl)-6-methylpyrimidin-4-yl)amino)pyridin-2-yl)acetamide] the IC50 [1] was 10 to 100 nM and the IC50 [2] was at most 10 nM.
In the case of `CCc1cc(Nc2cc(NC(C)=O)ncc2-c2ccc(C(C)(C)O)cn2)nc(C(C)(F)F)n1` [Example 839, N-(4′-((2-(1,1-difluoroethyl)-6-ethylpyrimidin-4-yl)amino)-5-(2-hydroxypropan-2-yl)-[2,3′-bipyridin]-6′-yl)acetamide], the IC50 [1] is reported as at most 10 nM and the IC50 [2] is reported as at most 10 nM.
With `CC(=O)Nc1cc(Nc2ccnc(C(C)(F)F)n2)c(-c2ccc(N(C)C)nn2)cn1` [Example 841, N-(4-((2-(1,1-difluoroethyl)pyrimidin-4-yl)amino)-5-(6-(dimethylamino)pyridazin-3-yl)pyridin-2-yl)acetamide] the IC50 [1] was at most 10 nM and the IC50 [2] was at most 10 nM.
`CC(=O)Nc1cc(Nc2ccnc(C(C)(F)F)n2)c(-c2cnc(N(C)C)cn2)cn1` [Example 842, N-(4-((2-(1,1-difluoroethyl)pyrimidin-4-yl)amino)-5-(5-(dimethylamino)pyrazin-2-yl)pyridin-2-yl)acetamide] was tested, and the IC50 [1] was 10 to 100 nM and the IC50 [2] was at most 10 nM.
`CC(=O)Nc1cc(Nc2ccnc(C(C)(F)F)n2)c(-c2cnc(N3CCCC3)cn2)cn1` [Example 843, N-(4-((2-(1,1-difluoroethyl)pyrimidin-4-yl)amino)-5-(5-(pyrrolidin-1-yl)pyrazin-2-yl)pyridin-2-yl)acetamide] showed an IC50 [1] of 10 to 100 nM and an IC50 [2] of at most 10 nM.
